Earlier results as cited in patent US5900414A, “Methods for administering integrin receptor antagonists” (Merck & Co., Inc., priority 1997, dated 1999).
Positions of bridges follow the written chain, without caps; N, C: chain ends. Non-standard residues stand in square brackets, D forms with d. Residues, ends and D or L forms follow the SMILES beside them. hArg = N=C(N)NCCCC[C@H](N)C(=O)O; Mpa = O=C(O)CCS

Experiments:
[1] = prodrug

In the case of CCCCS(=O)(=O)N[C@@H](Cc1ccc(OCCCCC2CCNCC2)cc1)C(=O)O [MK-383], the “selectivity for GPIIb/IIIa” value (GPIIb/IIIa) is given as “selective for GPIIb/IIIa”.
For N=C(N)NCCCC[C@@H]1NC(=O)CCSSC[C@@H](C(N)=O)NC(=O)[C@@H]2CCCN2C(=O)[C@H](Cc2c[nH]c3ccccc23)NC(=O)[C@H](CC(=O)O)NC(=O)CNC1=O [Integrilin] ([Mpa][hArg]GDWPC-NH2; disulfide 1-7), the “effect on ligand binding to αv β3” value (αv β3) is listed as “very little effect” and the “ligand binding to GPIIa/IIIa” value (GPIIa/IIIa) is listed as “inhibits ligand binding”.
For N=C(N)c1ccc(C(=O)N[C@@H](Cc2ccc(O)cc2)C(=O)N2CCC(OCC(=O)O)CC2)cc1 [Ro 44-9883], the “selectivity for GPIIb/IIIa” value (GPIIb/IIIa) is given as “selective for GPIIb/IIIa”.
In the case of C#C[C@H](CC(=O)OCC)NC(=O)CCC(=O)Nc1ccc(C(=N)N)cc1 [SC54684], the oral bioavailability [1] is given as “high oral bioavailability”.
